Experimental data reported in patent US20260285918A1, “PEPTIDE FOR INHIBITING PROTEIN AGGREGATION AND PROTECTING PROTEIN ACTIVITY” (GWANGJU INSTITUTE OF SCIENCE AND TECHNOLOGY, priority 2023, published 2026).

Columns and labels:
[1] = Solubility comparison after dialysis; format: physicochemical; settings: 100 μM, dialysed at 4° C. for 18 hours in 20 mM potassium phosphate, 150 mM NaCl, pH 7.0
Experimental: First, CAHS motif 1 124-142 was obtained via peptide synthesis. CAHS motif 1 124-142 and the entire CAHS protein 1-229 were each dialysed at 4° C. for 18 hours in a buffer containing 20 mM potassium phosphate, 150 mM NaCl, pH 7.0, at a concentration of 100 μM, to compare their solubility.

[2] = tested on: LDH (Lactate dehydrogenase); assay: LDH activity protection after dehydration-rehydration and freeze-thaw; format: biochemical; settings: for LDH activity protection rate: motif added at up to 1/10 of the BSA amount
Description: Specifically, as illustrated in FIG. 6(c), considering the charge, hydrophobicity, and hydrophilicity of each amino acid in the CAHS motif 1 124-142 sequence, Y (Tyr), Q (Gln), E (Glu), V (Val), R (Arg), and L (Leu) in the amino acid sequence of CAHS motif 1, represented by SEQ ID NO: 2, were each mutated to alanine at one site.

[3] = tested on: LDH (Lactate dehydrogenase); assay: Inhibition of LDH aggregation (absorption at 340 nm, light scattering) after dehydration-rehydration and freeze-thaw
Description: In other words, protein aggregation is the main cause of loss of protein activity. Protein aggregation is induced during the process of freezing and thawing (freeze and thaw) or in a water-free environment (dehydration), which causes loss of protein activity.

[4] = tested on: LDH (Lactate dehydrogenase); assay: LDH activity protection with temperature and time (storage); format: biochemical; settings: mass ratio 1:50
Experimental: CAHS motif 1 124-142, a stabilizer provided by the present invention, was mixed with LDH (lactate dehydrogenase), a target protein candidate for activity protection experiments, at a mass ratio of 1:50. The LDH protein activity was tested under various temperature and time conditions to determine the degree of protein activity protection.
Specifically, LDH protein activity was tested at temperatures of −20° C., 20° C., and 37° C., and at time intervals of 0, 1, 2, and 4 weeks.

| LDH activity preservation on storage ([4]; 20° C., 1 to 4 weeks) | LDH activity preservation on storage ([4]; 37° C., 1 to 4 weeks) | LDH activity preservation on storage ([4]; −20° C., 1 to 4 weeks) | Substance | solubility [1] | LDH activity protection compared between excipients [2] | LDH activity protection rate [2] | LDH aggregation ([3]; dehydration-rehydration) | LDH aggregation ([3]; freeze-thaw) | LDH activity preservation on storage ([4]; all conditions: −20° C., 20° C., 37° C., 0, 1, 2, 4 weeks) |
| --- | --- | --- | --- | --- | --- | --- | --- | --- | --- |
| well preserved | well preserved | well preserved | CAHS motif 1 124-142: 19-mer peptide, positions 124 to 142 of the CAHS protein, YRKQQEVEADKIRKELEKQ, obtained via peptide synthesis | excellent solubility in water | best protected the activity of the protein | 70-100% | reduced aggregation by more than half | effectively inhibits the aggregation of LDH | effectively preserve protein activity under all temperature and time conditions |
|  |  |  | Bovine Serum Albumin [BSA, reference compound] |  |  | 50-60% | barely prevented aggregation |  |  |
